Data published in patent publication US20170333390A1, “PHYTOCHEMICAL COMPOSITIONS INCLUDING SESAMIN FOR ANTI-INFLAMMATORY, ANTI-CYTOKINE STORM, AND OTHER USES” (CHIANG MAI UNIVERSITY, priority 2009, published 2017).

System: cartilage tissue cultures exposed to IL-1 (ECM degradation, HA release)
Experiment: HA release from IL-1 exposed cartilage tissue cultures (ELISA)
Assay type: cell-based
Conditions: relative to control culture
Experimental: Experiments were conducted to evaluate the anti-inflammatory effects of combinations of particular phytochemical compositions provided by the present disclosure with known substances, compositions, or drugs that are associated with an anti-inflammatory effect and/or an anti-degenerative or tissue integrity preservation effect in connective tissue. In the context of the present disclosure, the term “connective tissue” encompasses connective tissue proper (e.g., dense or fibrous connective tissue), as well as specialized connective tissue such as cartilage or bone. More specifically, experiments were conducted to evaluate the anti-inflammatory, anti-degenerative, and/or structural preservation effects of a combination of particular phytochemical compositions provided by the present disclosure with glucosamine sulfate. In addition, the experiments compared the anti-inflammatory/anti-degenerative effects of the combination of particular sesamin or sesamin-based phytochemical compositions provided by the present disclosure plus glucosamine sulfate, versus the anti-inflammatory/anti-degenerative effects of glucosamine sulfate alone.
Hyaluronic acid (HA) is an important component of the extracellular matrix (ECM), as well as a major component of synovial fluid. HA is present in articular cartilage, and contributes to cartilage resilience. It is known that IL-1 stimulates the synthesis and activity of matrix metalloproteinases and other enzymes that are associated with cartilage degradation as well as rheumatoid arthritis and osteoarthritis. A set of experimental cartilage tissue cultures were prepared using cartilage tissue samples containing HA within their ECMs. As further detailed below, the experimental cartilage tissue cultures selectively incorporated glucosamine sulfate alone; sesamin alone; or a combination of glucosamine sulfate and sesamin. Additionally, a control cartilage tissue culture remained unexposed to either of sesamin or glucosamine sulfate.
ECM degradation was induced in the experimental and control cartilage tissue cultures by exposing the cultures to IL-1. A measure or estimate of a cartilage tissue anti-degenerative effect was defined in accordance with an amount of HA that an experimental cartilage tissue culture released into the tissue culture medium relative to a reference or baseline amount of HA that was released into the tissue culture medium by the control cartilage tissue culture. More particularly, a percentage reduction in the amount of HA released into the tissue culture medium by a given experimental cartilage tissue culture relative to the amount of HA released into the tissue culture medium by the control cartilage tissue culture, indicated below as “Percentage (%) HA Reduction”, conveys or indicates the magnitude of an anti-degenerative or structural preservation effect provided by the experimental cartilage tissue culture under consideration. A corresponding measure or estimate of percentage (%) HA retention by cartilage tissue can also be defined based upon the experimental results. The amount or level of HA present in a given tissue culture medium was detected using ELISA, in a manner that can be understood by one of ordinary skill in the art.

## c1cc2c(cc1[C@H]1OC[C@H]3[C@@H]1CO[C@@H]3c1ccc3c(c1)OCO3)OCO2 [sesamin]
Sesamin 0.25 uM (88.6 ug/ml)
  Percentage (%) HA Reduction: approximately 0%
Sesamin 0.25 uM (88.6 ug/ml), listed as Sesamin
  Percentage (%) HA Reduction: 0%
Sesamin 0.50 uM (177.2 ug/ml)
  Percentage (%) HA Reduction: approximately 4%
Sesamin 0.50 uM (177.2 ug/ml), listed as Sesamin
  Percentage (%) HA Reduction: 4%
Sesamin 1.00 uM
  Percentage (%) HA Reduction: approximately 43%
Sesamin 1.00 uM, listed as Sesamin
  Percentage (%) HA Reduction: 56%
